The source of these data is patent US20030083241A1, “Use of somatostatin receptor agonists in the treatment of human disorders of sleep hypoxia and oxygen deprivation” (priority 2001, published 2003).

In experiment [1] the test system is TNF-alpha, Interleukin-1 beta and Interleukin-6. Conditions: cited from earlier work.
A further experiment concerns GERD symptoms. In words: Clinical observation of GERD symptoms in a terminal cancer patient given octreotide. It is filed as in vivo, human. The protocol:
Development of the present invention was stimulated by an event in Applicant's clinical practice of oncology. Octretotide was added to the treatment program of a patient with terminal cancer because the patient's cancer concentrated radiolabelled octreotide on a nuclear medicine scan. Treatment was initiated with subcutaneous octreotide at a dose of 150 microgram twice daily, then three times daily, and then finally the patient was shifted to a longer-acting depot formulation of octreotide (Sandostatin LAR) that was given intramuscularly on a monthly basis.

The subject of another experiment is GHRH hormone secretion. The conditions noted are these: in vivo; cited from earlier work.
In a further experiment the test system is obstructive sleep apnea. Conditions: octreotide given as therapy for the endocrine disorder; cited from earlier work.

As to `C[C@@H](O)[C@@H]1NC(=O)[C@H](CCCCN)NC(=O)[C@@H](Cc2c[nH]c3ccccc23)NC(=O)[C@H](Cc2ccccc2)NC(=O)[C@@H](NC(=O)[C@H](N)Cc2ccccc2)CSSC[C@@H](C(=O)N[C@H](CO)[C@@H](C)O)NC1=O` [octreotide, octreotide acetate], the “secretion of TNF-alpha, Interleukin-1 beta and Interleukin-6” value in experiment [1] was “inhibit”. In addition, the “GERD symptoms after initiation of octreotide administration” value in the experiment on GERD symptoms (one patient with terminal cancer, subcutaneous 150 microgram twice, then three times daily, then monthly IM Sandostatin LAR, symptoms present for many years) is “rapid and complete disappearance of GERD symptoms”. For the same compound, the “duration of control of GERD symptomatology” value in the experiment with GERD symptoms (same patient, until death from a complication of the cancer unrelated to therapy) is on record as “maintained for several months”. Moreover, the GHRH hormone secretion result in the experiment with GHRH hormone secretion is given as “inhibited”. The “obstructive sleep apnea in patients with acromegaly” value in the experiment with obstructive sleep apnea was “ameliorated in many patients”.
